The values that follow come from patent US11491158B2, “N-(substituted-phenyl)-sulfonamide derivatives as kinase inhibitors” (Nerviano Medical Sciences S.R.L., priority 2016, dated 2022).

SMILES strings stand for the structures.

The target in the assay is PERK recombinant enzyme (cytoplasmic domain corresponding to residues 540-1115) (Homo sapiens (Human), UniProt Q9NZJ5). Put plainly: PERK enzyme assay, Method 1: ADP-Glo Kinase Assay (quantification of ADP formed). The settings on record: 52 microM ATP, 8 nM PERK, 300 microM elF2alpha peptide substrate, 60 minutes. The class given is biochemical. The method, then:
The biochemical activity of compounds was determined by incubation with PERK recombinant enzyme (cytoplasmic domain corresponding to residues 540-1115) and elF2alpha peptide substrate (Aminoacid sequence: LLSELSRRRIRSINK—SEQ ID Nr: 1; purchased from American Peptide Company, product #341923). This was followed by:
Method 1: Quantification of the ADP Formed from the Kinase Reaction by ADP-Glo™ Kinase Assay (Promega Cat. 9102). Utra Pure ATP was Included into ADP-Glo™ Kinase Assay Kit. […]
After 60 minutes, an equal volume (15 microL) of ADP-Glo™ Reagent was added to each well to terminate the kinase reaction and deplete the remaining ATP. After 40 minutes, 30 microL of Kinase Detection Reagent is added, which simultaneously converts ADP to ATP and allows the newly synthesized ATP to be measured using a coupled luciferase/luciferin reaction. After further 40 minutes luminescence was read by ViewLux Instrument (Perkin Elmer). The data are analyzed by GraphPad Prism software which provides sigmoidal fittings of the curves for IC50 determination using a 4 parameter logistic equation: y=bottom+(top−bottom)/(1+10^((log IC50−x)*slope)) where x is the logarithm of the inhibitor concentration, y is the response; y starts at bottom and goes to top with a sigmoid shape. Method 2: Quantification of the Phosphorylated Product Formed from the Kinase Reaction in Presence of ATP (Aldrich, Cat #A2620-9).
For orientation: ADP-Glo turns the ADP formed in a reaction into a luminescent signal.

Sequence of PERK recombinant enzyme (cytoplasmic domain corresponding to residues 540-1115) (Q9NZJ5 540-1115): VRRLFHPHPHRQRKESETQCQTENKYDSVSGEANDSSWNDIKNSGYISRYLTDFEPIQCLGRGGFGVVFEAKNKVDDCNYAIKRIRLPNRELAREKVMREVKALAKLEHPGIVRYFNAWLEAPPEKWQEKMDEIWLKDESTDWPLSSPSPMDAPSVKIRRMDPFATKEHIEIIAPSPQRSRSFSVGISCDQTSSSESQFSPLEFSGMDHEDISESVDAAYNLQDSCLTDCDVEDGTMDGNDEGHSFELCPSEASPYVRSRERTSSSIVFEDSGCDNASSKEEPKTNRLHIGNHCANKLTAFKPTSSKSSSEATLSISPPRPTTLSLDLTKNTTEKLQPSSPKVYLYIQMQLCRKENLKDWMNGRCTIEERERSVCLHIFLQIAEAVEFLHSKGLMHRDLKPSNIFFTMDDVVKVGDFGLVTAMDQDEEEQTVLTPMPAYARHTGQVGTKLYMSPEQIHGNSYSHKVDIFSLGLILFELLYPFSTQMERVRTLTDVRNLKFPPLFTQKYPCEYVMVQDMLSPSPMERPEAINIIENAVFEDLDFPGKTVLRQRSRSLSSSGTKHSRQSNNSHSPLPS

As for `COc1ccc(S(=O)(=O)Nc2cccc(-c3csc4ccnc(N)c34)c2F)cc1C` [Cmpd 60, N-[3-(4-Amino-thieno[3,2-c]pyridin-3-yl)-2-fluoro-phenyl]-4-methoxy-3-methyl-benzenesulfonamide], the pIC50 entry was “C (pIC50 < 6.8)”.
